# From ChEMBL document CHEMBL1121775, “Synthesis and antimalarial effects of N2-aryl-N4-[(dialkylamino)alkyl]- and N4-aryl-N2-[(dialkylamino)alkyl]-2,4-quinazolinediamines” (J Med Chem, 1981)
# Values joined by “and” are separate entries in the source; they are usually repeats but may differ in a detail not shown here. Equal entries are not always repeated.
# Columns and labels:
# Plasmodium berghei [1] = assay: Antimalarial effect against trophozoite-induced Plasmodium berghei in mice (Mus musculus) after 20 mg/kg subcutaneous dose; type: functional
# Plasmodium berghei [2] = assay: Antimalarial activity against trophozoite-induced Plasmodium berghei in mice (Mus musculus) at 160 mg/kg subcutaneous dose; type: functional; settings: 160 mg/kg
# Mus musculus [3] = assay: Antimalarial effect against trophozoite-induced Plasmodium berghei in mice (Mus musculus) at dosage of 160 mg/kg after subcutaneous administration;; type: functional
# Mus musculus [4] = assay: Number of mice cured at a dose of 320 mg/kg sc; type: functional; settings: route subcutaneous
# Plasmodium berghei [5] = assay: Antimalarial activity against trophozoite-induced Plasmodium berghei in mice (Mus musculus); type: functional
# Mus musculus [6] = assay: Antimalarial effect against trophozoite-induced Plasmodium berghei in mice (Mus musculus) at dosage of 80 mg/kg after subcutaneous administration; type: functional
# Mus musculus [7] = assay: Number of mice cured at a subcutaneous dose of 160 mg/kg.; type: functional
# Mus musculus [8] = assay: Number of mice cured at a dose of 640 mg/kg sc; type: functional; settings: route subcutaneous
# Mus musculus [9] = assay: Antimalarial effect against trophozoite induced Plasmodium berghei in mice (Mus musculus) at dosage of 40 mg/kg after subcutaneous administration; type: functional
# [10] = (§1) Number of mice cured at a dose of 40 mg/kg sc; type: functional; settings: route subcutaneous
# Mus musculus [11] = assay: as §1; type: functional; settings: route subcutaneous
# [12] = (§2) Number of mice cured at a dose of 80 mg/kg sc; type: functional; settings: route subcutaneous
# [13] = The ratio of SD90 of the quinine htdrocloride, to the SD90 of the test substance for the Dose of 8.5 mg/kg; type: functional
# Plasmodium berghei [14] = assay: Antimalarial effect against trophozoite-induced Plasmodium berghei in mice (Mus musculus) after 40 mg/kg subcutaneous dose; type: functional
# Plasmodium berghei [15] = assay: Antimalarial effect against trophozoite-induced Plasmodium berghei in mice (Mus musculus) at 160 mg/kg subcutaneous dose; type: functional
# Plasmodium berghei [16] = assay: Antimalarial effect against trophozoite-induced Plasmodium berghei in mice (Mus musculus) at 80 mg/kg subcutaneous dose; type: functional
# [17] = The ratio of SD90 of the quinine hydrochloride, to the SD90 of the test substance for the Dose of >69 mg/kg; type: functional
# Mus musculus [18] = assay: Number of mice cured at a subcutaneous dose of 320 mg/kg.; type: functional
# [19] = The ratio of SD90 of the quinine hydrochloride, to the SD90 of the test substance for the Dose of 91 mg/kg; type: functional
# Plasmodium berghei [20] = assay: Antimalarial effect against trophozoite-induced Plasmodium berghei in mice (Mus musculus) at 320 mg/kg subcutaneous dose; type: functional
# Plasmodium berghei [21] = assay: (§3) Antimalarial effect against trophozoite-induced Plasmodium berghei in mice (Mus musculus) at 640 mg/kg subcutaneous dose; type: functional
# Plasmodium berghei [22] = assay: as §3; type: functional; remark: listed apart in the source
# Mus musculus [23] = assay: Number of toxic deaths at doae of 320 mg/kg; type: toxicity, organism-based; parameters: dose 320 mg/kg; settings: in vivo
# Mus musculus [24] = assay: Number of toxic deaths at dose of 640 mg/kg; type: toxicity, organism-based; parameters: dose 640 mg/kg; settings: in vivo
# Mus musculus [25] = assay: Number of mice cured at a dose of 160 mg/kg sc; type: functional; settings: route subcutaneous
# Mus musculus [26] = assay: as §2; type: functional; settings: route subcutaneous
# [27] = The ratio of SD90 of the quinine hydrochloride, to the SD90 of the test substance for the Dose of 7.8 mg/kg; type: functional
# [28] = The ratio of SD90 of the quinine hydrochloride, to the SD90 of the test substance for the Dose of 120 mg/kg; type: functional
# [29] = The ratio of SD90 of the quinine hydrochloride, to the SD90 of the test substance for the Dose of 11 mg/kg; type: functional
# Mus musculus [30] = assay: Number of mice cured at a subcutaneous dose of 640 mg/kg.; type: functional
# [31] = The ratio of SD90 of the quinine hydrochloride, to the SD90 of the test substance for the Dose of 17.5 mg/kg; type: functional
# Mus musculus [32] = assay: Antimalarial effect against trophozoite induced Plasmodium berghei in mice (Mus musculus) at dosage of 640 mg/kg after subcutaneous administration; No. of mice (Mus musculus) surviving after 60 days 3; type: functional
# [33] = The ratio of SD90 of the quinine hydrochloride, to the SD90 of the test substance for the Dose of 10.5 mg/kg; type: functional
compound,measurement,setting,value
CCN(CC)C1CCC(Nc2nc(Nc3cc(Cl)cc(Cl)c3)nc3ccccc23)CC1 (stereo in doubt; 35),MST,Plasmodium berghei [1]; 20 mg/kg,5.5 days
same,MST,Plasmodium berghei [2],24.9 days
same,MST,Mus musculus [3],23.9 days
same,No. of survivals,Mus musculus [4],5
same,SD90,Plasmodium berghei [5],8.5 mg/kg/day
same,MST,Mus musculus [6]; 80 mg/kg,21.9 days
same,No. of survivals,Mus musculus [7]; 160 mg/kg,4 and 3
same,No. of survivals,Mus musculus [8],5
same,MST,Mus musculus [9],9.6 days and 8.9 days
same,No. of survivals,[10],2
same,No. of survivals,Mus musculus [11],2
same,No. of survivals,[12],4
same,Ratio,[13],8.8
CCNCc1cc(Nc2nc(NC3CCC(N(C)C)CC3)c3ccccc3n2)ccc1OC (stereo unspecified),MST,Plasmodium berghei [1],0.3 days
same,MST,Plasmodium berghei [14],0.5 days
same,MST,Plasmodium berghei [15],3.7 days
same,SD90,Plasmodium berghei [5],>69 mg/kg/day
same,MST,Plasmodium berghei [16],2.7 days
same,Ratio,[17],<1.1
CCN(CC)CCNc1nc(Nc2ccc(C(F)(F)F)cc2)nc2ccccc12,MST,Plasmodium berghei [1],0.3 days
same,MST,Plasmodium berghei [14]; 40 mg/kg,1.7 days and 1.1 days
same,MST,Plasmodium berghei [15],8.9 days
same,SD90,Plasmodium berghei [5],91 mg/kg/day
same,MST,Plasmodium berghei [16],7.3 days
same,No. of survivals,Mus musculus [7],1
same,No. of survivals,Mus musculus [8],4
same,No. of survivals,Mus musculus [18],4
same,Ratio,[19],0.8
CCN(CC)CCCC(C)Nc1nc(Nc2ccc([N+](=O)[O-])cc2)c2ccccc2n1 (stereo unspecified),MST,Plasmodium berghei [1],0 days
same,MST,Plasmodium berghei [20],5 days
same,MST,Plasmodium berghei [14]; 40 mg/kg,0.8 days and 0.6 days
same,MST,Plasmodium berghei [21],5 days
same,MST,Plasmodium berghei [22],4.3 days
same,No. of toxic deaths,Mus musculus [23],2
same,No. of toxic deaths,Mus musculus [24],5
same,MST,Plasmodium berghei [15]; 160 mg/kg,2.6 days and 3.2 days
same,MST,Plasmodium berghei [16],1.4 days
CN(C)C1CCC(Nc2nc(Nc3ccc(Cl)c(Cl)c3)nc3ccccc23)CC1 (stereo in doubt; 22),MST,Plasmodium berghei [1]; 20 mg/kg,0.3 days
same,MST,Plasmodium berghei [20]; 320 mg/kg,25.9 days
same,MST,Plasmodium berghei [14]; 40 mg/kg,4.5 days and 4.1 days
same,MST,Plasmodium berghei [2],22.9 days
same,MST,Plasmodium berghei [15],25.9 days
same,No. of cured,Mus musculus [25],4
same,No. of cured,Mus musculus [4],4
same,SD90,Plasmodium berghei [5],7.8 mg/kg/day
same,MST,Mus musculus [6],11.4 days
same,No. of cured,Mus musculus [26],3
same,Ratio,[27],9.6
CCN(CC)CCNc1nc(Nc2cc(Cl)cc(Cl)c2)nc2ccccc12,MST,Plasmodium berghei [1],0.2 days
same,MST,Plasmodium berghei [20],12.2 days
same,MST,Plasmodium berghei [21]; 640 mg/kg,22.1 days and 20.8 days
same,MST,Plasmodium berghei [15]; 160 mg/kg,8.2 days and 9 days
same,SD90,Plasmodium berghei [5],120 mg/kg/day
same,MST,Plasmodium berghei [16],3.2 days
same,No. of survivals,Mus musculus [8]; 640 mg/kg,2 and 3
same,Ratio,[28],0.6
OC1CCCN(CCCNc2nc(Nc3ccc(Cl)cc3)nc3ccccc23)C1 (stereo unspecified),MST,Plasmodium berghei [1],0.2 days
same,MST,Plasmodium berghei [20],17.5 days
same,MST,Plasmodium berghei [14]; 40 mg/kg,2.2 days and 2.5 days
same,MST,Plasmodium berghei [21]; 640 mg/kg,26.1 days and 23.9 days
same,MST,Plasmodium berghei [15]; 160 mg/kg,10.4 days and 11.3 days
same,SD90,Plasmodium berghei [5],11 mg/kg/day
same,MST,Plasmodium berghei [16],4.6 days
same,No. of survivals,Mus musculus [8],2
same,Ratio,[29],6.8
same,No. of survivals,Mus musculus [18],2
CCN(CC)C1CCCC(Nc2nc(Nc3ccc(Cl)c(Cl)c3)nc3ccccc23)C1 (stereo unspecified),MST,Plasmodium berghei [1],1 days
same,MST,Plasmodium berghei [14]; 40 mg/kg,5 days and 4.8 days
same,MST,Plasmodium berghei [2],22.8 days and 23.1 days
same,No. of cured,Mus musculus [25],2
same,No. of cured,Mus musculus [4],5
same,No. of cured,Mus musculus [30],5
same,SD90,Plasmodium berghei [5],17.5 mg/kg/day
same,MST,Plasmodium berghei [16],8 days
same,Ratio,[31],4.2
CN1CCCC1CCNc1nc(Nc2ccc(Cl)c(Cl)c2)nc2ccccc12 (stereo unspecified),MST,Plasmodium berghei [1]; 20 mg/kg,3 days and 3.9 days
same,MST,Plasmodium berghei [20],20.8 days
same,MST,Plasmodium berghei [14],4 days
same,MST,Plasmodium berghei [21],29.8 days
same,MST,Mus musculus [32],28.9 days
same,MST,Plasmodium berghei [15]; 160 mg/kg,13.2 days and 13.9 days
same,No. of cured,Mus musculus [4],2
same,No. of cured,Mus musculus [30],4
same,SD90,Plasmodium berghei [5],10.5 mg/kg/day
same,MST,Plasmodium berghei [16],8 days
same,Ratio,[33],7.1
